# Experiments:
# Format in all cases: functional
# Escherichia coli [1] = assay: Bactericidal activity against Escherichia coli ATCC 25922 after 24 hrs; conditions: ATCC 25922, 24 h, read-out: MBC99.9
# [2] = test system: Staphylococcus epidermidis; assay: Bactericidal activity against methicillin-resistant Staphylococcus epidermidis isolate 458/11 after 24 hrs; conditions: isolate 458/11, 24 h, read-out: MBC99.9
# Staphylococcus aureus [3] = assay: Bactericidal activity against Staphylococcus aureus ATCC 6538 after 24 hrs; conditions: ATCC 6538, 24 h, read-out: MBC99.9
# [4] = test system: Staphylococcus epidermidis; assay: Antimicrobial activity against methicillin-resistant Staphylococcus epidermidis isolate 459/11 after 18 hrs by twofold serial broth dilution method; conditions: isolate 459/11, 18 h
# Escherichia coli [5] = assay: Bactericidal activity against Escherichia coli NCTC 8196 after 24 hrs; conditions: NCTC 8196, 24 h, read-out: MBC99.9
# [6] = test system: Staphylococcus epidermidis; assay: Bactericidal activity against methicillin-resistant Staphylococcus epidermidis isolate 407/10 after 24 hrs; conditions: isolate 407/10, 24 h, read-out: MBC99.9
# Pseudomonas aeruginosa [7] = assay: Antimicrobial activity against Pseudomonas aeruginosa NCTC 6749 after 18 hrs by twofold serial broth dilution method; conditions: NCTC 6749, 18 h
# [8] = test system: Staphylococcus epidermidis; assay: Bactericidal activity against methicillin-resistant Staphylococcus epidermidis isolate 469/11 after 24 hrs; conditions: isolate 469/11, 24 h, read-out: MBC99.9
# Pseudomonas aeruginosa [9] = assay: Bactericidal activity against Pseudomonas aeruginosa ATCC 15442 after 24 hrs; conditions: ATCC 15442, 24 h, read-out: MBC99.9
# Pseudomonas aeruginosa [10] = assay: Antimicrobial activity against Pseudomonas aeruginosa ATCC 15442 after 18 hrs by twofold serial broth dilution method; conditions: ATCC 15442, 18 h
# [11] = test system: Staphylococcus epidermidis; assay: Bactericidal activity against methicillin-resistant Staphylococcus epidermidis isolate 424/10 after 24 hrs; conditions: isolate 424/10, 24 h, read-out: MBC99.9
# Bacillus anthracis = assay: Antimicrobial activity against Bacillus anthracis 34F2 after 18 hrs by twofold serial broth dilution method; conditions: 34F2, 18 h
# [12] = test system: Staphylococcus epidermidis; assay: Antimicrobial activity against methicillin-resistant Staphylococcus epidermidis isolate 422/10 after 18 hrs by twofold serial broth dilution method; conditions: isolate 422/10, 18 h
# Pseudomonas aeruginosa [13] = assay: Bactericidal activity against Pseudomonas aeruginosa ATCC 27853 after 24 hrs; conditions: ATCC 27853, 24 h, read-out: MBC99.9
# [14] = test system: Staphylococcus epidermidis; assay: Antimicrobial activity against Staphylococcus epidermidis ATCC 12228 after 18 hrs by twofold serial broth dilution method; conditions: ATCC 12228, 18 h
# [15] = test system: Staphylococcus epidermidis; assay: Antimicrobial activity against methicillin-resistant Staphylococcus epidermidis isolate 454/11 after 18 hrs by twofold serial broth dilution method; conditions: isolate 454/11, 18 h
# [16] = test system: Staphylococcus epidermidis; assay: Antimicrobial activity against methicillin-resistant Staphylococcus epidermidis isolate 469/11 after 18 hrs by twofold serial broth dilution method; conditions: isolate 469/11, 18 h
# [17] = test system: Staphylococcus epidermidis; assay: Bactericidal activity against methicillin-resistant Staphylococcus epidermidis isolate 404/10 after 24 hrs; conditions: isolate 404/10, 24 h, read-out: MBC99.9
# Escherichia coli [18] = assay: Antimicrobial activity against Escherichia coli ATCC 25922 after 18 hrs by twofold serial broth dilution method; conditions: ATCC 25922, 18 h
# Staphylococcus aureus [19] = assay: Antimicrobial activity against Staphylococcus aureus ATCC 6538 after 18 hrs by twofold serial broth dilution method; conditions: ATCC 6538, 18 h
# [20] = test system: Staphylococcus epidermidis; assay: Antimicrobial activity against methicillin-resistant Staphylococcus epidermidis isolate 455/11 after 18 hrs by twofold serial broth dilution method; conditions: isolate 455/11, 18 h
# Staphylococcus aureus [21] = assay: Bactericidal activity against Staphylococcus aureus NCTC 4163 after 24 hrs; conditions: NCTC 4163, 24 h, read-out: MBC99.9
# Pseudomonas aeruginosa [22] = assay: Antimicrobial activity against Pseudomonas aeruginosa ATCC 27853 after 18 hrs by twofold serial broth dilution method; conditions: ATCC 27853, 18 h
# [23] = test system: Staphylococcus epidermidis; assay: Antimicrobial activity against methicillin-resistant Staphylococcus epidermidis isolate 407/10 after 18 hrs by twofold serial broth dilution method; conditions: isolate 407/10, 18 h
# [24] = test system: Staphylococcus epidermidis; assay: Antimicrobial activity against methicillin-resistant Staphylococcus epidermidis isolate 461/11 after 18 hrs by twofold serial broth dilution method; conditions: isolate 461/11, 18 h
# Staphylococcus aureus [25] = assay: Antimicrobial activity against Staphylococcus aureus […] after 18 hrs by twofold serial broth dilution method
# [26] = test system: Staphylococcus epidermidis; assay: Antimicrobial activity against methicillin-resistant Staphylococcus epidermidis isolate 409/10 after 18 hrs by twofold serial broth dilution method; conditions: isolate 409/10, 18 h
# [27] = test system: Staphylococcus epidermidis; assay: Antimicrobial activity against methicillin-resistant Staphylococcus epidermidis isolate 457/11 after 18 hrs by twofold serial broth dilution method; conditions: isolate 457/11, 18 h
# Staphylococcus aureus [28] = assay: Bactericidal activity against Staphylococcus aureus ATCC 25923 after 24 hrs; conditions: ATCC 25923, 24 h, read-out: MBC99.9
# [29] = test system: Staphylococcus epidermidis; assay: Bactericidal activity against methicillin-resistant Staphylococcus epidermidis isolate 455/11 after 24 hrs; conditions: isolate 455/11, 24 h, read-out: MBC99.9
# [30] = test system: Staphylococcus epidermidis; assay: Bactericidal activity against methicillin-resistant Staphylococcus epidermidis isolate 403/10 after 24 hrs; conditions: isolate 403/10, 24 h, read-out: MBC99.9
# Pseudomonas aeruginosa [31] = assay: Bactericidal activity against Pseudomonas aeruginosa NCTC 6749 after 24 hrs; conditions: NCTC 6749, 24 h, read-out: MBC99.9
# [32] = test system: Staphylococcus epidermidis; assay: Bactericidal activity against methicillin-resistant Staphylococcus epidermidis isolate 459/11 after 24 hrs; conditions: isolate 459/11, 24 h, read-out: MBC99.9
# [33] = test system: Staphylococcus epidermidis; assay: Bactericidal activity against methicillin-resistant Staphylococcus epidermidis isolate 405/10 after 24 hrs; conditions: isolate 405/10, 24 h, read-out: MBC99.9
# Escherichia coli [34] = assay: Antimicrobial activity against Escherichia coli ATCC 10538 after 18 hrs by twofold serial broth dilution method; conditions: ATCC 10538, 18 h
# [35] = test system: Staphylococcus epidermidis; assay: Antimicrobial activity against methicillin-resistant Staphylococcus epidermidis isolate 470/11 after 18 hrs by twofold serial broth dilution method; conditions: isolate 470/11, 18 h
# [36] = test system: Staphylococcus epidermidis; assay: Antimicrobial activity against methicillin-resistant Staphylococcus epidermidis isolate 404/10 after 18 hrs by twofold serial broth dilution method; conditions: isolate 404/10, 18 h
# Escherichia coli [37] = assay: Antimicrobial activity against Escherichia coli NCTC 8196 after 18 hrs by twofold serial broth dilution method; conditions: NCTC 8196, 18 h
# Staphylococcus aureus [38] = assay: Bactericidal activity against Staphylococcus aureus […] after 24 hrs; conditions: read-out: MBC99.9
# [39] = test system: Staphylococcus epidermidis; assay: Bactericidal activity against methicillin-resistant Staphylococcus epidermidis isolate 461/11 after 24 hrs; conditions: isolate 461/11, 24 h, read-out: MBC99.9
# [40] = test system: Staphylococcus epidermidis; assay: Bactericidal activity against methicillin-resistant Staphylococcus epidermidis isolate 454/11 after 24 hrs; conditions: isolate 454/11, 24 h, read-out: MBC99.9
# [41] = test system: Staphylococcus epidermidis; assay: Bactericidal activity against methicillin-resistant Staphylococcus epidermidis isolate 457/11 after 24 hrs; conditions: isolate 457/11, 24 h, read-out: MBC99.9
# [42] = test system: Staphylococcus epidermidis; assay: Bactericidal activity against Staphylococcus epidermidis ATCC 12228 after 24 hrs; conditions: ATCC 12228, 24 h, read-out: MBC99.9
smiles,measurement,setting,value
CCCCN(CCCC)C(=O)[C@H](CC)[C@H]1CC[C@H](C)[C@H]([C@@H](C)[C@H](O)[C@H](C)C(=O)[C@H](CC)[C@H]2O[C@]3(C=C[C@@H](O)[C@]4(CC[C@@](C)([C@H]5CC[C@](O)(CC)[C@H](C)O5)O4)O3)[C@H](C)C[C@@H]2C)O1,MBC,Escherichia coli [1],> 256 µg/mL
same,MBC,[2],256 µg/mL
same,MBC,Staphylococcus aureus [3],256 µg/mL
same,MIC,[4],4 µg/mL
same,MBC,Escherichia coli [5],> 256 µg/mL
same,MBC,[6],256 µg/mL
same,MIC,Pseudomonas aeruginosa [7],> 256 µg/mL
same,MBC,[8],> 256 µg/mL
same,MBC,Pseudomonas aeruginosa [9],> 256 µg/mL
same,MIC,Pseudomonas aeruginosa [10],> 256 µg/mL
same,MBC,[11],256 µg/mL
same,MIC,Bacillus anthracis,64 µg/mL
same,MIC,[12],8 µg/mL
same,MBC,Pseudomonas aeruginosa [13],> 256 µg/mL
same,MIC,[14],8 µg/mL
same,MIC,[15],4 µg/mL
same,MIC,[16],8 µg/mL
same,MBC,[17],> 256 µg/mL
same,MIC,Escherichia coli [18],> 256 µg/mL
same,MIC,Staphylococcus aureus [19],8 µg/mL
same,MIC,[20],16 µg/mL
same,MBC,Staphylococcus aureus [21],> 256 µg/mL
same,MIC,Pseudomonas aeruginosa [22],> 256 µg/mL
same,MIC,[23],8 µg/mL
same,MIC,[24],8 µg/mL
same,MIC,Staphylococcus aureus [25],8 µg/mL
same,MIC,[26],16 µg/mL
same,MIC,[27],4 µg/mL
same,MBC,Staphylococcus aureus [28],256 µg/mL
same,MBC,[29],256 µg/mL
same,MBC,[30],256 µg/mL
same,MBC,Pseudomonas aeruginosa [31],> 256 µg/mL
same,MBC,[32],256 µg/mL
same,MBC,[33],128 µg/mL
same,MIC,Escherichia coli [34],> 256 µg/mL
same,MIC,[35],8 µg/mL
same,MIC,[36],8 µg/mL
same,MIC,Escherichia coli [37],> 256 µg/mL
same,MBC,Staphylococcus aureus [38],> 256 µg/mL
same,MBC,[39],> 256 µg/mL
same,MBC,[40],128 µg/mL
same,MBC,[41],256 µg/mL
same,MBC,[42],> 256 µg/mL
CC[C@@H](C(=O)[C@@H](C)[C@@H](O)[C@H](C)[C@@H]1O[C@@H]([C@@H](CC)C(=O)N2CCNCC2)CC[C@@H]1C)[C@H]1O[C@]2(C=C[C@@H](O)[C@]3(CC[C@@](C)([C@H]4CC[C@](O)(CC)[C@H](C)O4)O3)O2)[C@H](C)C[C@@H]1C,MBC,Escherichia coli [1],> 256 µg/mL
same,MBC,[2],> 256 µg/mL
same,MBC,Staphylococcus aureus [3],> 256 µg/mL
same,MIC,[4],64 µg/mL
same,MBC,Escherichia coli [5],> 256 µg/mL
same,MBC,[6],> 256 µg/mL
same,MIC,Pseudomonas aeruginosa [7],> 256 µg/mL
same,MBC,[8],> 256 µg/mL
same,MBC,Pseudomonas aeruginosa [9],> 256 µg/mL
same,MIC,Pseudomonas aeruginosa [10],> 256 µg/mL
same,MBC,[11],> 256 µg/mL
same,MIC,Bacillus anthracis,64 µg/mL
same,MIC,[12],128 µg/mL
same,MBC,Pseudomonas aeruginosa [13],> 256 µg/mL
same,MIC,[14],128 µg/mL
same,MIC,[15],128 µg/mL
same,MIC,[16],128 µg/mL
same,MBC,[17],256 µg/mL
same,MIC,Escherichia coli [18],> 256 µg/mL
same,MIC,Staphylococcus aureus [19],64 µg/mL
same,MIC,[20],256 µg/mL
same,MBC,Staphylococcus aureus [21],> 256 µg/mL
same,MIC,Pseudomonas aeruginosa [22],> 256 µg/mL
same,MIC,[23],128 µg/mL
same,MIC,[24],256 µg/mL
same,MIC,Staphylococcus aureus [25],128 µg/mL
same,MIC,[26],128 µg/mL
same,MIC,[27],256 µg/mL
same,MBC,Staphylococcus aureus [28],> 256 µg/mL
same,MBC,[29],> 256 µg/mL
same,MBC,[30],> 256 µg/mL
same,MBC,Pseudomonas aeruginosa [31],> 256 µg/mL
same,MBC,[32],> 256 µg/mL
same,MBC,[33],> 256 µg/mL
same,MIC,Escherichia coli [34],> 256 µg/mL
same,MIC,[35],256 µg/mL
same,MIC,[36],64 µg/mL
same,MIC,Escherichia coli [37],> 256 µg/mL
same,MBC,Staphylococcus aureus [38],> 256 µg/mL
same,MBC,[39],> 256 µg/mL
same,MBC,[40],> 256 µg/mL
same,MBC,[41],> 256 µg/mL
same,MBC,[42],> 256 µg/mL

# Source: ChEMBL document CHEMBL3400015, “Tertiary amides of Salinomycin: A new group of antibacterial agents against Bacillus anthracis and methicillin-resistant Staphylococcus epidermidis” (Bioorg Med Chem Lett, 2015)
